For 25 compounds, IC50 results are on record in patent US8022206B2 (OSI Pharmaceuticals, LLC, priority 2008, dated 2011).

pIC50: −log10 of the molar value.

One assay has as its target RON (human) (Homo sapiens, UniProt Q04912). Briefly: RON (human) AlphaScreen kinase assay, Km of ATP. The format is biochemical. The settings on record: AlphaScreen, Km of ATP; read-out: RON biochemical IC50. In short, it runs like this:
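Reaction was started with enzyme and run 30 min at RT. PT66 donor/acceptor beads in an EDTA-containing Tris pH 7.5 buffer were then added, and the signal was read after 1 h.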
(In general: Bead proximity is the source of the signal in Alpha formats.)

The target of another assay is MET (human) (Homo sapiens, UniProt P08581). Description: MET (human) AlphaScreen kinase assay, Km of ATP. The format is biochemical. The settings on record: AlphaScreen, Km of ATP; read-out: Met biochemical IC50. The procedure: Someone skilled in the art will appreciate that a variety of assay formats may be used to determine the activity of the compounds of this invention. For example, AlphaScreen (Amplified Luminescent Proximity Homogeneous Assay) technology was used with the kinases described below. Assay ATP concentrations for individual kinases are included in the text.
Sequence of MET (human) (P08581 25-1390): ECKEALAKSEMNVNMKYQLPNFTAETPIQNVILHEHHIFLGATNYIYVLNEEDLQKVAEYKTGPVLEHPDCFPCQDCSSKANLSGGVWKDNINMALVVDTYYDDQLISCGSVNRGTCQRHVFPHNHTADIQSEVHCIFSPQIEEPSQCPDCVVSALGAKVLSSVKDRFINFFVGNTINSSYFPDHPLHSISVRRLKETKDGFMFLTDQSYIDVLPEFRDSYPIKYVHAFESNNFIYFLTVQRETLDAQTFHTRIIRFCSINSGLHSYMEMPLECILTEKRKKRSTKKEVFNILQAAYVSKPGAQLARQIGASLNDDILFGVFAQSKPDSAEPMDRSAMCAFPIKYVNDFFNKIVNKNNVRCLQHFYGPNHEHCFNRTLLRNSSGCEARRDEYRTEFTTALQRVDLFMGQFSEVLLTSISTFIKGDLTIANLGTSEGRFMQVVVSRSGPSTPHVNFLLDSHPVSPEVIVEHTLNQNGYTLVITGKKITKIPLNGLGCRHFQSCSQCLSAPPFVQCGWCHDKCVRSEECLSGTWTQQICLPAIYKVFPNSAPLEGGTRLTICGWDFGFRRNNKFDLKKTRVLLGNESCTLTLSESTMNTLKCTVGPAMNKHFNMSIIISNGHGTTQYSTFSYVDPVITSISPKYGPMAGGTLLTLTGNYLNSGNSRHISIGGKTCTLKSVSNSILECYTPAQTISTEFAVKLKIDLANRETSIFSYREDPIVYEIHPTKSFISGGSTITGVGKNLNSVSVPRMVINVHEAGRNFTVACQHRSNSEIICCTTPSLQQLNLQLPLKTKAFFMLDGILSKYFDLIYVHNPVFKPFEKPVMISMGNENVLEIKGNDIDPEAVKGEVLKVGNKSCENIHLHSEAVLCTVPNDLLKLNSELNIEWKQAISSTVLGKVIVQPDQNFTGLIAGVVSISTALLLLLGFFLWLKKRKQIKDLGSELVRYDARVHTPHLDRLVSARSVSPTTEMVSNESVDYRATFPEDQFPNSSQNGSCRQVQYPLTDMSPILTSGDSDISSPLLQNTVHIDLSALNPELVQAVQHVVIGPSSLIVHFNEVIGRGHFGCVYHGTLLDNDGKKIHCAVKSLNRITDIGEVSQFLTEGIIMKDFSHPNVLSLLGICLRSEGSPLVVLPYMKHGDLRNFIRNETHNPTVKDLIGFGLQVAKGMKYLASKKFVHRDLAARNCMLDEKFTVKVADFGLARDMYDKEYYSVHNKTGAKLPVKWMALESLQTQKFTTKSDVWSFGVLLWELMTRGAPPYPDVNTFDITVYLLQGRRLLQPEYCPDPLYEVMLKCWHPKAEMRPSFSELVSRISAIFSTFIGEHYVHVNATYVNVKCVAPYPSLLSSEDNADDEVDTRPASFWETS
Desired compound is added in a final concentration of 1% DMSO with control being vehicle of DMSO alone. MET is diluted to the optimized concentration (optimized on a lot-by-lot basis) in an enzyme diluent buffer (50 mM Tris pH=7.4, 1% glycerol, 0.03% Brij35, 0.24 mM EGTA, 1 mM DTT, and 0.003% BSA). Enzyme is added to initiate the reaction and incubated for 60 min at RT. In subdued light, appropriate amount of PT66 donor and acceptor beads (diluted 1:260 from manufacturer's provision in a 25 mM Tris HCl (pH=7.5), 400 mM NaCl, 100 mM EDTA, 0.3% BSA buffer) are added to the wells. The plates, incubated for 1 h, are read on an AlphaQuest plate reader

Sequence of RON (human) (Q04912 25-1400): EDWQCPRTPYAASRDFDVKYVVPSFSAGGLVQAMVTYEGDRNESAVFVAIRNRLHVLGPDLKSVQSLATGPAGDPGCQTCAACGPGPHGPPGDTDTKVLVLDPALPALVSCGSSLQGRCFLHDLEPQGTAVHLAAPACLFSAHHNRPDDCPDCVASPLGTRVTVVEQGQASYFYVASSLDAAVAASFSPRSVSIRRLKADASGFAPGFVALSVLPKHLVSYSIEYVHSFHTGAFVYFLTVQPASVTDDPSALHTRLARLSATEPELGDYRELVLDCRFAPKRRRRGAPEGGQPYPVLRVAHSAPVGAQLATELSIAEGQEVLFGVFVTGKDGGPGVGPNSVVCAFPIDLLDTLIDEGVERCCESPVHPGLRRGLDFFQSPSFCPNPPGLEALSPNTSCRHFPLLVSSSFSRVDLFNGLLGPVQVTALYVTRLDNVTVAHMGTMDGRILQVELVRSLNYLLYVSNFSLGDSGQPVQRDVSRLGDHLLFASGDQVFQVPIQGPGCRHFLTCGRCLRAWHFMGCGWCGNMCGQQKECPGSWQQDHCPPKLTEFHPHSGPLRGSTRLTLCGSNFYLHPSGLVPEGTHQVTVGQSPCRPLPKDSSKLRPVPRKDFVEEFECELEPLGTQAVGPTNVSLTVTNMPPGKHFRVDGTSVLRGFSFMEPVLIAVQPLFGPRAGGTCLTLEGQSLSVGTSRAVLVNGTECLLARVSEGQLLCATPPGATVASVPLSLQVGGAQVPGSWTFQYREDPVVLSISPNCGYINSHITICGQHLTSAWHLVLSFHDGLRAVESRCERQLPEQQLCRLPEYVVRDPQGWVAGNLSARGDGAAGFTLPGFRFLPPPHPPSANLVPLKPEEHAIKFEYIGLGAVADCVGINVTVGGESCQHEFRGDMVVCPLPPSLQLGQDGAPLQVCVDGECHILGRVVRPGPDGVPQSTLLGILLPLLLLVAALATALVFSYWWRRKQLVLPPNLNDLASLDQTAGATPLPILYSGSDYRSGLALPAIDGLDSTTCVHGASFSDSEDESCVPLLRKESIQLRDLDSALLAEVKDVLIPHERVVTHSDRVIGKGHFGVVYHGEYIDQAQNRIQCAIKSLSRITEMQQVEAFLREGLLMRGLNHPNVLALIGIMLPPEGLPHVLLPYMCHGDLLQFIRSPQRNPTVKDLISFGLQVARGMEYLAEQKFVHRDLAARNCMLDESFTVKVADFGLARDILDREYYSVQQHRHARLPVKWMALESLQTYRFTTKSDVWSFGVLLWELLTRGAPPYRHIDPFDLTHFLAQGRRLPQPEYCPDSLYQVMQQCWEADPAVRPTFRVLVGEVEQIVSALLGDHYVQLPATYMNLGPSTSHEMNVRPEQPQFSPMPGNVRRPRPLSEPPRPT

With `CC(Oc1c(N)ncc2c(-c3cnn(C4CCNCC4)c3)coc12)c1ccc(Cl)cc1F` (centres unmarked) [Example 378, 7-[1-(4-Chloro-2-fluorophenyl)ethoxy]-3-(1-piperidin-4-yl-1H-pyrazol-4-yl)furo[3,2-c]pyridin-6-ylamine], the figures for the pIC50 on RON (human) and at MET (human) were 5.30 to 6.30 and > 6.30, respectively.
Taken in the same sequence, the figures for `C[C@H](O)C(=O)N1CC=C(c2coc3c(O[C@H](C)c4c(Cl)ccc(F)c4Cl)c(N)ncc23)CC1` [Example 227, (S)-1-(4-{6-Amino-7-[(R)-1-(2,6-dichloro-3-fluorophenyl)ethoxy]-furo[3,2-c]pyridin-3-yl}-3,6-dihydro-2H-pyridin-1-yl)-2-hydroxypropan-1-one] were 5.30 to 6.30 and > 6.30.
Taken in the same sequence, the figures for `COc1cccc(C(C)Oc2c(N)ncc3c(-c4cnn(C5CCNCC5)c4)coc23)c1` (centres unmarked) [Example 345, 7-[1-(3-Methoxyphenyl)-ethoxy]-3-(1-piperidin-4-yl-1H-pyrazol-4-yl)furo[3,2-c]pyridin-6-ylamine] were 5.30 to 6.30 and 5.30 to 6.30.
The corresponding values for `CC(Oc1c(N)ncc2c(-c3cnn(C4CCNCC4)c3)coc12)c1ccccc1` (centres unmarked) [Example 386, 7-(1-Phenylethoxy)-3-(1-piperidin-4-yl-1H-pyrazol-4-yl)furo[3,2-c]pyridin-6-ylamine] are 5.30 to 6.30 and 5.30 to 6.30.
In the case of `C[C@@H](Oc1c(N)ncc2c(C3=CCS(=O)(=O)CC3)coc12)c1c(Cl)ccc(F)c1Cl` [Example 140, 7-[(1R)-1-(2,6-Dichloro-3-fluorophenyl)ethoxy]-3-(1,1-dioxido-3,6-dihydro-2H-thiopyran-4-yl)furo[3,2-c]pyridin-6-amine], the pIC50 on RON (human) is 5.30 to 6.30; on MET (human), > 6.30.
Take `CCNC(=O)c1ccc(-c2coc3c(O[C@H](C)c4c(Cl)ccc(F)c4Cl)c(N)ncc23)s1` [Example 207, 5-{6-Amino-7-[(R)-1-(2,6-dichloro-3-fluorophenyl)ethoxy]-furo[3,2-c]pyridin-3-yl}-thiophene-2-carboxylic acid ethyl amide]: the negative-log IC50 (pIC50) at RON (human) and at MET (human) was 5.30 to 6.30 in each case.
Regarding `CC(Oc1c(N)ncc2c(-c3cnn(C4CCNCC4)c3)coc12)c1ccc(OC(F)(F)F)cc1` (centres unmarked) [Example 355, 3-(1-Piperidin-4-yl-1H-pyrazol-4-yl)-7-[1-(4-trifluoromethoxy-phenyl)ethoxy]furo[3,2-c]pyridin-6-ylamine], the pIC50 at RON (human) and at MET (human) was 5.30 to 6.30 in each case.
Regarding `C[C@@H](Oc1c(N)ncc2c(-c3ccc(CO)s3)coc12)c1c(Cl)ccc(F)c1Cl` [Example 212, (5-{6-Amino-7-[(R)-1-(2,6-dichloro-3-fluorophenyl)ethoxy]-furo[3,2-c]pyridin-3-yl}-thiophen-2-yl)methanol], the pIC50 on RON (human) and on MET (human) was 5.30 to 6.30 in each case.
`Cc1cccc(C)c1C(C)Oc1c(N)ncc2c(-c3cnn(C4CCNCC4)c3)coc12` (centres unmarked) [Example 402, 7-[1-(2,6-Dimethylphenyl)ethoxy]-3-(1-piperidin-4-yl-1H-pyrazol-4-yl)furo[3,2-c]pyridin-6-ylamine]: the negative-log IC50 (pIC50) on RON (human) and at MET (human) was 5.30 to 6.30 in each case.
Regarding `CCNC(=O)c1csc(-c2coc3c(O[C@H](C)c4c(Cl)ccc(F)c4Cl)c(N)ncc23)c1` [Example 329, 5-{6-Amino-7-[(R)-1-(2,6-dichloro-3-fluorophenyl)ethoxy]furo[3,2-c]pyridin-3-yl}-thiophene-3-carboxylic acid Ethylamide], the results for the pIC50 at RON (human) and on MET (human) were 4.70 to 5.30 and 5.30 to 6.30, respectively.
The corresponding values for `C[C@@H](Oc1c(N)ncc2c(C3=CCN(C(=O)[C@@H]4CCCN4C)CC3)coc12)c1c(Cl)ccc(F)c1Cl` [Example 18, (4-{6-Amino-7-[(R)-1-(2,6-dichloro-3-fluorophenyl)-ethoxy]-furo[3,2-c]pyridin-3-yl}-3,6-dihydro-2H-pyridin-1-yl)-((S)-1-methylpyrrolidin-2-yl)-methanone] are > 6.30 and > 6.30.
With `CC(Oc1c(N)ncc2c(-c3cnn(C4CCNCC4)c3)coc12)c1cccc(-c2cn[nH]c2)c1` (centres unmarked) [Example 447], the pIC50 on RON (human) and at MET (human) was 5.30 to 6.30 throughout.
For the compound `C[C@@H](Oc1c(N)ncc2c(-c3cccc(O)c3)coc12)c1c(Cl)ccc(F)c1Cl` [Example 128, 3-{6-Amino-7-[(R)-(2,6-dichloro-3-fluorophenyl)ethoxy]-furo[3,2-c]pyridin-3-yl}phenol], the negative-log IC50 (pIC50) on RON (human) and at MET (human) was 5.30 to 6.30 in each case.
For `CC(Oc1c(N)ncc2c(C3=CCN(C(N)=O)CC3)coc12)c1c(Cl)ccc(F)c1Cl` (centres unmarked) [Example 455, 4-{6-Amino-7-[1-(2,6-dichloro-3-fluorophenyl)ethoxy]furo[3,2-c]pyridin-3-yl}-3,6-dihydro-2H-pyridine-1-carboxamide], the negative-log IC50 (pIC50) at RON (human) was 5.30 to 6.30; on MET (human) it was > 6.30.
The corresponding values for `C[C@@H](Oc1c(N)ncc2c(C3=CCN(C(=O)[C@]4(C)CCCN4)CC3)coc12)c1c(Cl)ccc(F)c1Cl` [Example 160, [4-{6-Amino-7-[(1R)-1-(2,6-dichloro-3-fluorophenyl)ethoxy]furo[3,2-c]pyridin-3-yl}-3,6-dihydropyridin-1(2H)-yl][(2S)-2-methylpyrrolidin-2-yl]methanone] are > 6.30 and > 6.30.
Turning to `C[C@H](Cc1ccccc1)Oc1c(N)ncc2c(-c3cnn(C4CCNCC4)c3)coc12` [Example 415, 7-((R)-1-Methyl-2-phenylethoxy)-3-(1-piperidin-4-yl-1H-pyrazol-4-yl)furo[3,2-c]pyridin-6-ylamine], the pIC50 at RON (human) and at MET (human) was 5.30 to 6.30 each time.
Take `C[C@@H](Oc1c(N)ncc2c(C3=CCN(C(=O)Nc4ccccc4Cl)CC3)coc12)c1c(Cl)ccc(F)c1Cl` [Example 152, 4-{6-Amino-7-[(1R)-1-(2,6-dichloro-3-fluorophenyl)ethoxy]furo[3,2-c]pyridin-3-yl}-N-(2-chlorophenyl)-3,6-dihydropyridine-1(2H)-carboxamide]: the negative-log IC50 (pIC50) at RON (human) and on MET (human) was 5.30 to 6.30 throughout.
Consider `C[C@@H](Oc1c(N)ncc2c(-c3ccc(N4CCN(C(N)=O)CC4)cc3)coc12)c1c(Cl)ccc(F)c1Cl` [Example 320, 4-(4-{6-Amino-7-[(R)-1-(2,6-dichloro-3-fluorophenyl)ethoxy]furo[3,2-c]pyridin-3-yl}phenyl)piperazine-1-carboxamide], for which the negative-log IC50 (pIC50) at RON (human) and at MET (human) was 5.30 to 6.30 in each case.
`CC(Oc1c(N)ncc2c(-c3cnn(C4CCNCC4)c3)coc12)c1cccc(OC(F)(F)F)c1` (centres unmarked) [Example 352, 3-(1-Piperidin-4-yl-1H-pyrazol-4-yl)-7-[1-(3-trifluoromethoxy-phenyl)ethoxy]furo[3,2-c]pyridin-6-ylamine]: the pIC50 on RON (human) and on MET (human) was 5.30 to 6.30 throughout.
Regarding `C[C@@H](Oc1c(N)ncc2c(C3=CCN(/C(=N\C#N)N(C)C)CC3)coc12)c1c(Cl)ccc(F)c1Cl` [Example 196, 4-{6-Amino-7-[(R)-1-(2,6-dichloro-3-fluorophenyl)ethoxy]-furo[3,2-c]pyridin-3-yl}-N,N-cyano-N,N-dimethyl-3,6-dihydro-2H-pyridine-1-carboxamidine], the negative logarithm of the IC50 (pIC50) at RON (human) and on MET (human) was 5.30 to 6.30 each time.
For the compound `C[C@@H](Oc1c(N)ncc2c(C3=CCN(C(=O)N4CCOCC4)CC3)coc12)c1c(Cl)ccc(F)c1Cl` [Example 31, (4-{6-Amino-7-[(R)-1-(2,6-dichloro-3-fluorophenyl)-ethoxy]-furo[3,2-c]pyridin-3-yl}-3,6-dihydro-2H-pyridin-1-yl)-morpholin-4-ylmethanone], the pIC50 at RON (human) and on MET (human) was 5.30 to 6.30 throughout.
`C[C@@H](Oc1c(N)ncc2c(-c3cnc(N(C)C)nc3)coc12)c1c(Cl)ccc(F)c1Cl` [Example 124, 7-[(R)-1-(2,6-Dichloro-3-fluorophenyl)ethoxy]-3-(2-dimethylaminopyrimidin-5-yl)furo[3,2-c]pyridin-6-ylamine]: the pIC50 on RON (human) and on MET (human) was 5.30 to 6.30 in each case.
Consider `C[C@@H](Oc1c(N)ncc2c(C3=CCN(CC(=O)N4CCC(O)C4)CC3)coc12)c1c(Cl)ccc(F)c1Cl` (stereo partly drawn) [Example 203, 2-(4-{6-Amino-7-[(R)-1-(2,6-dichloro-3-fluorophenyl)ethoxy]-furo[3,2-e]pyridin-3-yl}-3,6-dihydro-2H-pyridin-1-yl)-1-(3-hydroxypyrrolidin-1-yl)ethanone], for which the pIC50 was 5.30 to 6.30 on RON (human) and > 6.30 on MET (human).
`CC(Cc1ccccc1)Oc1c(N)ncc2c(-c3cnn(C4CCNCC4)c3)coc12` (centres unmarked) [Example 405, 7-(1-Methyl-2-phenylethoxy)-3-(1-piperidin-4-yl-1H-pyrazol-4-yl)furo[3,2-c]pyridin-6-ylamine]: the pIC50 on RON (human) and on MET (human) was > 6.30 throughout.
As to `Cn1c(Cc2ccccc2)ncc(-c2ccc(COc3c(N)ncc4c(-c5cnn(C6CCNCC6)c5)coc34)cc2)c1=O` [Example 462, 5-{4-[6-Amino-3-(1-piperidin-4-yl-1H-pyrazol-4-yl)-furo[3,2-c]pyridin-7-yloxymethyl]-phenyl}-2-benzyl-3-methyl-3H-pyrimidin-4-one], the negative logarithm of the IC50 (pIC50) on RON (human) and on MET (human) was > 6.30 throughout.

The term pIC50 denotes the IC50 on a negative log10 scale, so that one unit is a factor of ten.
